Test results from article PMC8891364, “Synthesis, and docking studies of novel heterocycles incorporating the indazolylthiazole moiety as antimicrobial and anticancer agents” (Scientific Reports, 2022).
In brackets after ≈: the same amount, converted by molar mass.

Experiments:
[1] = tested on: Streptococcus mutans ATCC 25175; assay: Antimicrobial microtiter-plate MIC assay; format: cell-based; details: for MIC Streptococcus mutant: 24 h, 37 °C; for MIC: Streptococcus mutans, ATCC25175, 24 h, read-out: MIC Streptococcus mutant
Protocol: (§1) The antimicrobial activity of the newly synthesized compounds (2–9) was evaluated against three model pathogenic microorganisms as follows: Streptococcus mutans ATCC 25175 (Gram-positive bacterium); Pseudomonas aeruginosa ATCC 27853 (Gram-negative bacterium); and Candida albicans ATCC 10231 (fungi-like unicellular organism). After cultivating the three tested pathogens overnight in LB broth, 100 µL of each tested organism (10^6 CFU/mL) was added separately to 100 µL of the serially diluted test compounds (5–80 µg) in a 96-well tissue culture plate and incubated at 37 °C for 24 h. Eventually, microbial growth was measured at 600 nm, and the results are presented in the form of MIC (Table 4). Two antibacterial reference drugs, ampicillin and ciprofloxacin, and one antifungal drug, clotrimazole, were incorporated into the experiments.

[2] = tested on: Pseudomonas aeruginosa ATCC 27853; assay: Antimicrobial microtiter-plate MIC assay; format: cell-based; details: 24 h, 37 °C; for MIC: Pseudomonas aeruginosa, ATCC27853
Protocol: as §1

[3] = tested on: Candida albicans ATCC 10231; assay: Antimicrobial microtiter-plate MIC assay; format: cell-based; details: for MIC: ATCC10231; for MIC / MIC Candida albicans: 24 h, 37 °C
Protocol: as §1

HepG-2 cells = assay: MTT antitumor assay, hepatoma cells; format: cell-based, human; details: for IC50 HepG-2 / IC50: MTT, 48 h; for SI HepG-2: ratio of IC50 of normal cells (HFB-4) versus IC50 of tumor cells; for IC50: Homo sapiens, HepG2, 48 h
Protocol: (§2) The human melanocytes (HFB-4) cells, hepatoma (HepG-2) cells, and colon carcinoma (Caco-2) cells were obtained from American Type Culture Collection (ATCC, USA). The cytotoxicity of the newly synthesized compounds (at various concentrations) was determined using the 3-[4, 5-dimethylthiazol]-2, 5-diphenyltetrazolium bromide method (MTT assay)[59] against HFB-4 cells (normal human melanocytes), HepG-2 cells (hepatoma), and Caco-2 cells (colon carcinoma). Normal and cancer cells (1.0 × 10^4) were cultured in sterile 96-well microplates, and incubated for 24 h in DMEM (Lonza, USA) supplemented with 10% fetal bovine serum (Gibco, USA) for HFB-4 and Caco-2 cells or in an RPMI-1640 medium (Lonza, USA) supplemented with 10% FBS for HepG-2 cells. After 24 h of incubation, different doses of the tested synthesized compounds ([…]) were added in triplicate to all cells and incubated for another 48 h in 5% CO2. After washing the cells 3 times with fresh media, to remove dead cells and debris, a solution of MTT (Sigma -Aldrich, 0.5 mg/mL) was added to each well and further incubated for 2–5 h at 37 °C. Afterward, the MTT solution was decanted and 200 µL of DMSO was added. The optical density was measured at 570 nm using a microplate reader (BMG LabTech, Germany), where the cells’ relative viability (%) was estimated using the following equation: viability of cells (%) = [A1 − A0/AU − A0] × 100, where A1 is the absorbance of the test compound, A0 is the absorbance of the blank, and AU is the absorbance of untreated cells (control).
(§3) The antitumor activity of the synthesized compound was determined by calculating the IC50 value (half maximal inhibitory concentration) using Graph Pad Prism 6.0 software. The value of IC50 indicates the derivative concentration that causes 50% cell death, whereas the value of the selectivity index (SI), indicating the ratio of the IC50 value of normal cells versus the IC50 value of tumor cells, was also included as reported by[60],[61].

Pseudomonas aeruginosa = assay: Microbial-biofilm inhibition, tissue-culture plate technique (TCP); format: cell-based; details: 25 µg/mL, 24 h
Protocol: (§4) The activity of the newly synthesized compounds against microbial biofilm formation was estimated through the tissue-culture plate technique (TCP) as follows: the three above-mentioned pathogens, Streptococcus mutans, Pseudomonas aeruginosa, and Candida albicans were cultivated overnight in LB broth at 37 °C. Afterward, 200 µL of each diluted organism (10^6 CFU/mL) was inoculated separately (in triplicate) into 96-well tissue culture plates and incubated overnight at 37 °C. The free planktonic cells were removed, after the incubation period, by flipping the plate and washing each well three times with phosphate-buffered-saline (PBS), pH 7.1. To each well, 175 µL of fresh LB broth was added along with 25 µL of the tested compound (25 µg/mL final concentrations). The plates were reincubated at 37 °C for another 24 h, washed with PBS buffer pH 7.1 three times, and dried for 5 min at 50 °C. The formed biofilm was stained with crystal violet solution (0.1% w/v) for 5 min. The excess stain was decanted, and the stained biofilm was solubilized with 200 µL of glacial acetic acid (30% v/v), where the developed blue color was measured at 590 nm. The results are expressed as relative inhibition (%) compared to untreated groups (control). Controls were prepared by culturing the three pathogens on LB medium without any tested compounds.

Caco-2 cells = assay: MTT antitumor assay, colon carcinoma cells; format: cell-based; details: for IC50 Caco-2 / IC50: MTT, 48 h; for SI Caco-2: ratio of IC50 of normal cells (HFB-4) versus IC50 of tumor cells; for IC50: Homo sapiens, Caco-2, 48 h
Protocol: as §2, §3

HFB-4 cells = assay: MTT cytotoxicity assay, normal human melanocytes; format: cell-based; details: 48 h; for IC50: Melanocyte
Protocol: as §2, §3

Candida albicans = assay: Microbial-biofilm inhibition, tissue-culture plate technique (TCP); format: cell-based; details: 24 h, relative to untreated; for inhibition at 25 µg/mL: Candida albicans
Protocol: as §4

Streptococcus mutans = assay: as above; format: cell-based; details: 25 µg/mL, 24 h
Protocol: as §4

β-catenin gene = assay: qRT-PCR gene expression in HepG-2 and Caco-2 cells; format: cell-based, human; details: IC50 concentrations, 2 days
Protocol: The effects of the potent antitumor derivatives (4, 6, and 8) on the expression level of some tumor regulating genes were elucidated through quantitative real-time PCR (qRT- PCR) and compared to 5-fluorouracil (5-FU) as a reference antitumor drug. Five genes were assessed, including the tumor oncogene (Bcl-2), tumor suppressor gene (p53), matrix metalloproteinase gene (MMP-9), vascular endothelial growth factor gene (VEGF), and beta-catenin protein gene (β-catenin), in HepG-2 and Caco-2 cells, before and after treatment for 2 days with IC50 concentrations for compounds 4, 6, and 8. Following the extraction of total RNA from the tested cells, using the Gene JET RNA Purification Kit (Thermo Scientific, USA), cDNA synthesis was performed according to the cDNA Synthesis Kit protocol (Thermo Scientific, USA). qRT PCR was performed using the SYBR green kit and specific primers (Forward/Reverse) as follows: 5′-[…]-3'/5'-TCG GTCTCCTAAAAGCAGGC-3′ for the Bcl-2 gene, 5′-TAACAGTTCCTGCATG GG CG GC-3′/5′-[…]-3′ for p53, 5'-CTGCGTATTTCCATT CATC-3'/5'-CCTTGGGTCAGGTTTAGAG-3' for the MMP-9 gene, 5'-GGCTTTACT GCTGTACCTCC-3'/5'-CAAATGCTTTCTCCGCTCT-3' for the VEGF gene, and 5'-CATATGCGGCTGCTG TTCTA-3'/5'-CCGAAAG CCGTTTCTTGTAG-3' for the β-catenin gene. The upregulation and/or downregulation of the expression of the tested genes in Caco-2 and HepG-2 cells was determined by using the equation 2^−ΔΔCT[60].

| Compound | MIC Streptococcus mutant [1] [µg/mL] | MIC [1] [µg/mL] | MIC Pseudomonas aeruginosa [2] [µg/mL] | MIC [2] [µg/mL] | MIC ([3]; Candida albicans) [µg/mL] | SI HepG-2 (HepG-2 cells) | biofilm inhibition activity Pseudomonas aeruginosa (in words) (Pseudomonas aeruginosa) | SI Caco-2 (Caco-2 cells) | IC50 (HepG-2 cells) [µg/mL] | inhibition at 25 µg/mL (Candida albicans) [%] | IC50 (Caco-2 cells) [µg/mL] | IC50 (HFB-4 cells) [µg/mL] | further results |
| --- | --- | --- | --- | --- | --- | --- | --- | --- | --- | --- | --- | --- | --- |
| CC1(C)S[C@@H]2[C@H](NC(=O)[C@H](N)c3ccccc3)C(=O)N2[C@H]1C(=O)O [Ampicillin, ampicillin, reference compound] | 13.5 ± 0.234 (≈ 38.6 µM) | 13.5 (≈ 38.6 µM) | – | – | – | – | – | – | – | – | – | – | – |
| O=C(O)c1cn(C2CC2)c2cc(N3CCNCC3)c(F)cc2c1=O [Ciprofloxacin, ciprofloxacin, reference compound] | – | – | 18.7 ± 0.475 (≈ 56.4 µM) | 18.7 (≈ 56.4 µM) | – | – | – | – | – | – | – | – | – |
| Clc1ccccc1C(c1ccccc1)(c1ccccc1)n1ccnc1 [Clotrimazole, clotrimazole, reference compound] | – | – | – | – | 14.5 ± 1.25 (≈ 42 µM) | – | – | – | – | – | – | – | – |
| NS(=O)(=O)c1ccc(Nc2csc(N3NC4=C(CCCC4)C3c3ccccc3)n2)cc1 (stereo not drawn) [Compound 2] | 49.71 ± 0.5849 (≈ 110 µM) | – | 40.13 ± 2.109 (≈ 88.5 µM) | – | – | 17.39 ± 0.24 | high biofilm inhibition activity | 18.28 ± 0.25 | – | – | – | – | MIC Candida albicans [3]: 52.77 ± 0.7862 µg/mL (≈ 116 µM); IC50 HepG-2 (HepG-2 cells): 6.37 ± 0.36 µg/mL (≈ 14 µM); biofilm inhibition Pseudomonas aeruginosa (Pseudomonas aeruginosa; relative to untreated): approximately 58.5%; IC50 Caco-2 (Caco-2 cells): 6.06 ± 1.26 µg/mL (≈ 13.4 µM); IC50 HFB-4 (HFB-4 cells): 110.8 ± 1.54 µg/mL (≈ 244 µM) |
| N#CC1=C(N)N(c2ccc(S(N)(=O)=O)cc2)c2nc(N3NC4=C(CCCC4)C3c3ccccc3)sc2C1c1ccccc1 (stereo not drawn) [Compound 3, 4-(5-amino-6-cyano-7-phenyl-2-(3-phenyl-1,3,4,5,6,7-hexahydro-2H-indazol-2-yl)thiazolo[4,5-b]pyridin-4(7H)-yl) benzenesulfonamide] | 11.12 ± 0.4232 (≈ 18.3 µM) | – | 18.29 ± 2.114 (≈ 30.1 µM) | – | – | 7.20 ± 0.20 | high biofilm inhibition activity | 7.18 ± 0.20 | – | – | – | – | MIC Candida albicans [3]: 40.74 ± 0.5511 µg/mL (≈ 67 µM); MIC Candida albicans ([3]; listed as compound 3): 40.74 µg/mL (≈ 67 µM); antifungal activity as share of clotrimazole activity ([3]; Candida albicans): 36%; MIC Pseudomonas aeruginosa ([2]; listed as derivative 3): 18.29 µg/mL (≈ 30.1 µM); MIC Streptococcus mutant ([1]; listed as derivative 3): 11.2 µg/mL (≈ 18.4 µM); IC50 HepG-2 (HepG-2 cells): 7.72 ± 0.38 µg/mL (≈ 12.7 µM); biofilm inhibition Candida albicans (Candida albicans; 25 µg/mL): 69%; antibiofilm formation activity Streptococcus mutans (in words) (Streptococcus mutans): had antibiofilm formation activities; biofilm inhibition Streptococcus mutans (Streptococcus mutans; relative to untreated): around 64%; IC50 Caco-2 (Caco-2 cells): 7.74 ± 0.81 µg/mL (≈ 12.7 µM); IC50 HFB-4 (HFB-4 cells): 55.59 ± 1.58 µg/mL (≈ 91.5 µM) |
| N#Cc1c(N)sc2sc(N3NC4=C(CCCC4)C3c3ccccc3)nc12 (stereo not drawn) [Compound 5, 5-amino-2-(3-phenyl-1,3,4,5,6,7-hexahydro-2H-indazol-2-yl)thieno[3,2-d]thiazole-6-carbonitrile] | – | 43.52 ± 0.359 (≈ 115 µM) | – | 56.5 ± 2.19 (≈ 149 µM) | 59 ± 1.28 (≈ 156 µM) | 12.90 ± 0.32 | high biofilm inhibition activity | 12.87 ± 0.32 | 7.57 ± 0.36 (≈ 19.9 µM) | 68 | 7.59 ± 0.24 (≈ 20 µM) | 97.7 ± 2.41 (≈ 257 µM) | – |
| O=c1[nH]cc(F)c(=O)[nH]1 [Compound 5-FU, 5-fluorouracil, reference compound] | – | – | – | – | – | – | – | – | – | – | – | – | expression of the β-catenin gene (β-catenin gene): stimulated its expression |
| N=C1CC(=O)Oc2nc(N3NC4=C(CCCC4)C3c3ccccc3)sc21 (stereo not drawn) [Compound 7, 7-imino-2-(3-phenyl-1,3,4,5,6,7-hexahydro-2H-indazol-2-yl)-6,7-dihydro-5H-pyrano [2,3-d]thiazol-5-one] | – | 22.4 ± 0.317 (≈ 61.2 µM) | – | 43.9 ± 2.04 (≈ 120 µM) | 58.2 ± 1.21 (≈ 159 µM) | 10.99 ± 0.65 | – | 11.39 ± 0.67 | 9.53 ± 0.32 (≈ 26 µM) | 66 | 9.2 ± 0.27 (≈ 25.1 µM) | 105 ± 6.2 (≈ 286 µM) | – |
| CCOC(=O)C1=C2N=C(N3NC4=C(CCCC4)C3c3ccccc3)SC2C(=S)S1 (stereo not drawn) [Compound 9, ethyl 2-(3-phenyl-1,3,4,5,6,7-hexahydro-2H-indazol-2-yl)-6-thioxo-6,6a-dihydrothieno [3,4-d]thiazole-4-carboxylate] | – | 48.77 ± 0.246 (≈ 110 µM) | – | 61.5 ± 1.83 (≈ 139 µM) | 46.6 ± 1.2 (≈ 105 µM) | 12.55 ± 0.06 | – | 11.04 ± 0.05 | 5.23 ± 0.25 (≈ 11.8 µM) | ~79 | 5.95 ± 0.1 (≈ 13.4 µM) | 65.65 ± 0.29 (≈ 148 µM) | – |
